Measurements as given in BindingDB's records for doi:10.1016/j.bmcl.2017.09.048 (St. John'S University, 2017).

Assay: Inhibition of ABL T315I mutant in mouse BAF3 cells assessed as reduction in cell viability after 72 hrs by MTT assay

`COc1cc(N2CCN(C)CC2)ccc1Nc1ncc(Cl)c(Oc2cccc([N+](=O)[O-])c2)n1` and `COc1cc(N2CCN(C)CC2)ccc1Nc1ncc(Cl)c(Oc2ccc([N+](=O)[O-])cc2)n1` are within 1.5-fold of each other in IC50: 9.15 µM for the first, 6.89 µM for the second.

Going from `COc1cc(N2CCN(C)CC2)ccc1Nc1ncc(Cl)c(Oc2ccc(N=C=S)cc2)n1` to `COc1cc(N2CCN(C)CC2)ccc1Nc1ncc(Cl)c(Oc2cccc(N=C=S)c2)n1`, the IC50 falls from 9.53 µM to 4.99 µM (1.9-fold).

`COc1cc(N2CCN(C)CC2)ccc1Nc1ncc(Cl)c(Oc2ccccc2NC(=O)CCOCc2ccccc2)n1` and `COc1cc(N2CCN(C)CC2)ccc1Nc1ncc(Cl)c(Oc2ccccc2NC(=O)COCc2ccccc2)n1` are within 1.5-fold of each other in IC50: 3.06 µM for the first, 3.5 µM for the second.

`COc1cc(N2CCN(C)CC2)ccc1Nc1ncc(Cl)c(Oc2cccc(NC(=O)CCO)c2)n1` and `COc1cc(N2CCN(C)CC2)ccc1Nc1ncc(Cl)c(Oc2cccc(NC(=O)CO)c2)n1` are within 1.5-fold of each other in IC50: 1.39 µM for the first, 1.12 µM for the second.

Going from `COc1cc(N2CCN(C)CC2)ccc1Nc1ncc(Cl)c(Oc2ccc(NC(C)=O)cc2)n1` to `C=CC(=O)Nc1ccc(Oc2nc(Nc3ccc(N4CCN(C)CC4)cc3OC)ncc2Cl)cc1`, the IC50 rises from 2.89 µM to 7.7 µM (2.7-fold). The first is the more potent here.

`COc1cc(N2CCN(C)CC2)ccc1Nc1ncc(Cl)c(Oc2ccccc2NC(C)=O)n1` and `COc1cc(N2CCN(C)CC2)ccc1Nc1ncc(Cl)c(Oc2ccccc2NC(=O)CO)n1` are within 1.5-fold of each other in IC50: 4.73 µM for the first, 4.18 µM for the second.

First: COc1cc(N2CCN(C)CC2)ccc1Nc1ncc(Cl)c(Oc2ccccc2N=[N+]=[N-])n1
Second: COc1cc(N2CCN(C)CC2)ccc1Nc1ncc(Cl)c(Oc2ccccc2N=C=S)n1
The IC50 of the first is 6.8-fold lower: 1.33 µM for the first, 8.99 µM for the second.

Going from `COc1cc(N2CCN(C)CC2)ccc1Nc1ncc(Cl)c(Oc2cccc(NC(=O)/C=C/CN(C)C)c2)n1` to `COc1cc(N2CCN(C)CC2)ccc1Nc1ncc(Cl)c(Oc2ccc(NC(=O)/C=C/CN(C)C)cc2)n1`, the IC50 falls from 6.02 µM to 3.41 µM (1.8-fold). The second is the more potent here.

`COc1cc(N2CCN(C)CC2)ccc1Nc1ncc(Cl)c(Oc2cccc(NC(=O)COCc3ccccc3)c2)n1` and `COc1cc(N2CCN(C)CC2)ccc1Nc1ncc(Cl)c(Oc2cccc(NC(=O)CCOCc3ccccc3)c2)n1` are within 1.5-fold of each other in IC50: 2.87 µM for the first, 2.49 µM for the second.

`COc1cc(N2CCN(C)CC2)ccc1Nc1ncc(Cl)c(Oc2ccc(NC(=O)CCO)cc2)n1` and `COc1cc(N2CCN(C)CC2)ccc1Nc1ncc(Cl)c(Oc2ccc(NC(=O)CO)cc2)n1` are within 1.5-fold of each other in IC50: 3.35 µM for the first, 2.74 µM for the second.

First: COc1cc(N2CCN(C)CC2)ccc1Nc1ncc(Cl)c(Oc2ccccc2[N+](=O)[O-])n1
Second: COc1cc(N2CCN(C)CC2)ccc1Nc1ncc(Cl)c(Oc2ccccc2N)n1
The IC50 of the first is 2-fold higher: 11.6 µM for the first, 5.74 µM for the second. The second is the more potent here.

First: COc1cc(N2CCN(C)CC2)ccc1Nc1ncc(Cl)c(Oc2cccc(N=[N+]=[N-])c2)n1
Second: COc1cc(N2CCN(C)CC2)ccc1Nc1ncc(Cl)c(Oc2ccc(N=[N+]=[N-])cc2)n1
The IC50 of the first is 3.2-fold lower: 4.67 µM for the first, 15.1 µM for the second.

Going from `COc1cc(N2CCN(C)CC2)ccc1Nc1ncc(Cl)c(Oc2cccc(NC(C)=O)c2)n1` to `C=CC(=O)Nc1cccc(Oc2nc(Nc3ccc(N4CCN(C)CC4)cc3OC)ncc2Cl)c1`, the IC50 rises from 5.56 µM to 16.3 µM (2.9-fold). The first is the more potent here.

Compared with `COc1cc(N2CCN(C)CC2)ccc1Nc1ncc(Cl)c(Oc2ccc(NC(=O)CCOCc3ccccc3)cc2)n1`, `COc1cc(N2CCN(C)CC2)ccc1Nc1ncc(Cl)c(Oc2ccc(NC(=O)COCc3ccccc3)cc2)n1` is 2.4-fold higher in IC50: 1.5 µM for the first, 3.62 µM for the second. The first is the more potent here.

First: COc1cc(N2CCN(C)CC2)ccc1Nc1ncc(Cl)c(Oc2ccccc2NC(=O)CCO)n1
Second: C=CC(=O)Nc1ccccc1Oc1nc(Nc2ccc(N3CCN(C)CC3)cc2OC)ncc1Cl
The IC50 of the first is 1.6-fold higher: 3.86 µM for the first, 2.37 µM for the second. The second is the more potent here.

First: COc1cc(N2CCN(C)CC2)ccc1Nc1ncc(Cl)c(Oc2ccccc2NC(=O)/C=C/CN(C)C)n1
Second: COc1cc(N2CCN(C)CC2)ccc1Nc1ncc(Cl)c(Oc2cccc(N)c2)n1
The IC50 of the first is 4.1-fold higher: 8.12 µM for the first, 1.96 µM for the second.

With `COc1cc(N2CCN(C)CC2)ccc1Nc1ncc(Cl)c(Oc2ccc(N)cc2)n1` the IC50 was 5.47 µM.

Assay: Inhibition of ABL in mouse BAF3 cells assessed as reduction in cell viability after 72 hrs by MTT assay

First: COc1cc(N2CCN(C)CC2)ccc1Nc1ncc(Cl)c(Oc2cccc([N+](=O)[O-])c2)n1
Second: COc1cc(N2CCN(C)CC2)ccc1Nc1ncc(Cl)c(Oc2ccc([N+](=O)[O-])cc2)n1
The IC50 of the first is 2-fold higher: 6.8 µM for the first, 3.48 µM for the second. The second is the more potent here.

`COc1cc(N2CCN(C)CC2)ccc1Nc1ncc(Cl)c(Oc2ccc(N=C=S)cc2)n1` and `COc1cc(N2CCN(C)CC2)ccc1Nc1ncc(Cl)c(Oc2cccc(N=C=S)c2)n1` are within 1.5-fold of each other in IC50: 7.5 µM for the first, 8.41 µM for the second.

Going from `COc1cc(N2CCN(C)CC2)ccc1Nc1ncc(Cl)c(Oc2ccccc2NC(=O)CCOCc2ccccc2)n1` to `COc1cc(N2CCN(C)CC2)ccc1Nc1ncc(Cl)c(Oc2ccccc2NC(=O)COCc2ccccc2)n1`, the IC50 falls from 3.12 µM to 1.37 µM (2.3-fold).

`COc1cc(N2CCN(C)CC2)ccc1Nc1ncc(Cl)c(Oc2cccc(NC(=O)CCO)c2)n1` and `COc1cc(N2CCN(C)CC2)ccc1Nc1ncc(Cl)c(Oc2cccc(NC(=O)CO)c2)n1` are within 1.5-fold of each other in IC50: 2.07 µM for the first, 1.48 µM for the second.

Going from `COc1cc(N2CCN(C)CC2)ccc1Nc1ncc(Cl)c(Oc2ccc(NC(C)=O)cc2)n1` to `C=CC(=O)Nc1ccc(Oc2nc(Nc3ccc(N4CCN(C)CC4)cc3OC)ncc2Cl)cc1`, the IC50 rises from 2.08 µM to 6.39 µM (3.1-fold). The first is the more potent here.

First: COc1cc(N2CCN(C)CC2)ccc1Nc1ncc(Cl)c(Oc2ccccc2NC(C)=O)n1
Second: COc1cc(N2CCN(C)CC2)ccc1Nc1ncc(Cl)c(Oc2ccccc2NC(=O)CO)n1
The IC50 of the first is 4.1-fold higher: 8.49 µM for the first, 2.07 µM for the second.

Going from `COc1cc(N2CCN(C)CC2)ccc1Nc1ncc(Cl)c(Oc2ccccc2N=[N+]=[N-])n1` to `COc1cc(N2CCN(C)CC2)ccc1Nc1ncc(Cl)c(Oc2ccccc2N=C=S)n1`, the IC50 rises from 1.45 µM to 5.56 µM (3.8-fold).

`COc1cc(N2CCN(C)CC2)ccc1Nc1ncc(Cl)c(Oc2cccc(NC(=O)/C=C/CN(C)C)c2)n1` and `COc1cc(N2CCN(C)CC2)ccc1Nc1ncc(Cl)c(Oc2ccc(NC(=O)/C=C/CN(C)C)cc2)n1` are within 1.5-fold of each other in IC50: 7.02 µM for the first, 4.72 µM for the second.

`COc1cc(N2CCN(C)CC2)ccc1Nc1ncc(Cl)c(Oc2cccc(NC(=O)COCc3ccccc3)c2)n1` and `COc1cc(N2CCN(C)CC2)ccc1Nc1ncc(Cl)c(Oc2cccc(NC(=O)CCOCc3ccccc3)c2)n1` are within 1.5-fold of each other in IC50: 2.44 µM for the first, 2.47 µM for the second.

First: COc1cc(N2CCN(C)CC2)ccc1Nc1ncc(Cl)c(Oc2ccc(NC(=O)CCO)cc2)n1
Second: COc1cc(N2CCN(C)CC2)ccc1Nc1ncc(Cl)c(Oc2ccc(NC(=O)CO)cc2)n1
The IC50 of the first is 2.1-fold lower: 3.25 µM for the first, 6.68 µM for the second. The first is the more potent here.

`COc1cc(N2CCN(C)CC2)ccc1Nc1ncc(Cl)c(Oc2ccccc2[N+](=O)[O-])n1` and `COc1cc(N2CCN(C)CC2)ccc1Nc1ncc(Cl)c(Oc2ccccc2N)n1` are within 1.5-fold of each other in IC50: 6.81 µM for the first, 6.73 µM for the second.

Compared with `COc1cc(N2CCN(C)CC2)ccc1Nc1ncc(Cl)c(Oc2cccc(N=[N+]=[N-])c2)n1`, `COc1cc(N2CCN(C)CC2)ccc1Nc1ncc(Cl)c(Oc2ccc(N=[N+]=[N-])cc2)n1` is 3.4-fold higher in IC50: 3.87 µM for the first, 13.1 µM for the second. The first is the more potent here.

First: COc1cc(N2CCN(C)CC2)ccc1Nc1ncc(Cl)c(Oc2cccc(NC(C)=O)c2)n1
Second: C=CC(=O)Nc1cccc(Oc2nc(Nc3ccc(N4CCN(C)CC4)cc3OC)ncc2Cl)c1
The IC50 of the first is 3.3-fold lower: 2.91 µM for the first, 9.69 µM for the second. The first is the more potent here.

`COc1cc(N2CCN(C)CC2)ccc1Nc1ncc(Cl)c(Oc2ccc(NC(=O)CCOCc3ccccc3)cc2)n1` and `COc1cc(N2CCN(C)CC2)ccc1Nc1ncc(Cl)c(Oc2ccc(NC(=O)COCc3ccccc3)cc2)n1` are within 1.5-fold of each other in IC50: 1.43 µM for the first, 2.11 µM for the second.

`COc1cc(N2CCN(C)CC2)ccc1Nc1ncc(Cl)c(Oc2ccccc2NC(=O)CCO)n1` and `C=CC(=O)Nc1ccccc1Oc1nc(Nc2ccc(N3CCN(C)CC3)cc2OC)ncc1Cl` are within 1.5-fold of each other in IC50: 2.12 µM for the first, 2.92 µM for the second.

Compared with `COc1cc(N2CCN(C)CC2)ccc1Nc1ncc(Cl)c(Oc2ccccc2NC(=O)/C=C/CN(C)C)n1`, `COc1cc(N2CCN(C)CC2)ccc1Nc1ncc(Cl)c(Oc2cccc(N)c2)n1` is 4.8-fold lower in IC50: 9.1 µM for the first, 1.9 µM for the second.

In the case of `COc1cc(N2CCN(C)CC2)ccc1Nc1ncc(Cl)c(Oc2ccc(N)cc2)n1`, the IC50 is reported as 2.81 µM.
